# According to patent US20200131196A1 (Mount Tam Therapeutics, Inc., priority 2017, published 2020):
# Read-outs that look alike come from different tables or passages of the source.
# Assays:
# [1] = system: RKOE6; assay: OncoPanel cell proliferation assay, RKOE6
# Method: (§5) Cells were seeded into 384-well plates and incubated in a humidified atmosphere of 5% CO2 at 37° C. Compounds were added the day following cell seeding. At the same time, a time zero untreated cell plate was generated. After a 3-day incubation period, cells were fixed and stained to allow fluorescence imaging of nuclei. Compounds (1 mM stock solutions) were serially diluted in half-log steps from the highest test concentration (1 micromol), and assayed over 10 concentrations with a maximum assay concentration of 0.1% DMSO. Automated fluorescence microscopy was carried out using a Molecular Devices ImageXpress Micro XL high-content imager, and images were collected with a 4× objective. 16-bit TIFF images were acquired and analyzed with MetaXpress 5.1.0.41 software.
# [2] = system: SHP-77; assay: OncoPanel cell proliferation assay, SHP-77
# Method: as §5
# [3] = system: NCI-H510A; assay: OncoPanel cell proliferation assay, NCI-H510A; format: cell-based, human
# Method: (§1) Cells were grown in RPMI 1640, 10% FBS, 2 mM L-alanyl-L-glutamine, 1 mM Na pyruvate, or a special medium. Cells were seeded into 384-well plates and incubated in a humidified atmosphere of 5% CO2 at 37° C. Compounds were added the day following cell seeding. At the same time, a time zero untreated cell plate was generated. After a 3-day incubation period, cells were fixed and stained to allow fluorescence imaging of nuclei. Compounds (1 mM stock solutions) were serially diluted in half-log steps from the highest test concentration ([…]), and assayed over 10 concentrations with a maximum assay concentration of 0.1% DMSO. Automated fluorescence microscopy was carried out using a Molecular Devices ImageXpress Micro XL high-content imager, and images were collected with a 4× objective. 16-bit TIFF images were acquired and analyzed with MetaXpress 5.1.0.41 software.
# (§2) Cell proliferation was measured by the fluorescence intensity of an incorporated nuclear dye. The output is referred to as the relative cell count, where the measured nuclear intensity is transformed to percent of control (POC) using the following formula: […]
# (§3) Cellular response parameters were calculated using nonlinear regression to a sigmoidal single-site dose response model:
# (§4) EC50 is the test compound concentration at the curve inflection point or half the effective response (parameter C of the fitted curve solution). GI50 is the concentration needed to reduce the observed growth by half (midway between the curve maximum and the time zero value). “Cell Count Activity Area” is an estimate of the integrated area above the curve (Barretina, et al. The Cancer Cell Line Encyclopedia enables predictive modelling of anticancer drug sensitivity. Nature 483: 603-607). […] In rare instances, values <0 or >10 may be observed. […] Curve-fitting, calculations, and report generation was performed using a custom data reduction engine and MathIQ based software (AIM).
# [4] = system: U2OS; assay: OncoPanel cell proliferation assay, U2OS; format: cell-based, human
# Method: as §1, with “Cells” for “Cells were grown in RPMI 1640, 10% FBS, 2 mM L-alanyl-L-glutamine, 1 mM Na pyruvate, or a special medium. Cells”
# as §2, §3
# GI50 is the concentration needed to reduce the observed growth by half (midway between the curve maximum and the time zero value). […] In rare instances, values <0 or >10 may be observed. […] Curve-fitting, calculations, and report generation was performed using a custom data reduction engine and MathIQ based software (AIM).
# [5] = system: CHP-212; assay: OncoPanel cell proliferation assay, CHP-212
# Method: as §5
# [6] = system: U-87 MG; assay: OncoPanel cell proliferation assay, U-87 MG; format: cell-based, human
# Method: as §1, §2, §3, §4
# [7] = Homo sapiens, read-out: Cell Count EC50
# [8] = Homo sapiens, read-out: Cell Count GI50
# [9] = Homo sapiens, read-out: Cell Count IC50
smiles,measurement,setting,value
"CO[C@H]1C[C@@H]2CC[C@@H](C)[C@@](O)(O2)C(=O)C(=O)N2CCCC[C@H]2C(=O)O[C@H]([C@H](C)C[C@H]2C[C@H]3C[C@@H]2C[C@@H]3O)CC(=O)[C@H](C)/C=C(\C)[C@@H](O)[C@@H](OC)C(=O)[C@H](C)C[C@H](C)/C=C/C=C/C=C/1C [Formula II, C37-[(1R,2S,4R,5S)-5-hyhroxybicyclo[2.2.1]heptane] rapamycin]",EC50,"[1]; Homo sapiens, RKOE6, read-out: Cell Count EC50",1.13 nM
same,GI50,"[1]; Homo sapiens, RKOE6, read-out: Cell Count GI50",5.57 nM
same,IC50,"[1]; Homo sapiens, RKOE6, read-out: Cell Count IC50",14.2 nM
same,Cell Count Activity Area,[1]; RKOE6,3.66
same,Relative cell count (%) Mean,"[1]; RKOE6, 1.00E+00 microM",40.1%
same,Relative cell count (%) Mean,"[1]; RKOE6, 1.00E-01 microM",43.1%
same,Relative cell count (%) Mean,"[1]; RKOE6, 1.00E-02 microM",52.2%
same,Relative cell count (%) Mean,"[1]; RKOE6, 1.00E-03 microM",64.1%
same,Relative cell count (%) Mean,"[1]; RKOE6, 1.01E-04 microM",94.2%
same,Relative cell count (%) Mean,"[1]; RKOE6, 3.16E-01 microM",43.1%
same,Relative cell count (%) Mean,"[1]; RKOE6, 3.17E-02 microM",49.1%
same,Relative cell count (%) Mean,"[1]; RKOE6, 3.17E-03 microM",65.3%
same,Relative cell count (%) Mean,"[1]; RKOE6, 3.18E-04 microM",84.4%
same,Relative cell count (%) Mean,"[1]; RKOE6, 3.18E-05 microM",98.6%
same,EC50,"[2]; Homo sapiens, SHP77, read-out: Cell Count EC50",> 1000 nM
same,GI50,"[2]; Homo sapiens, SHP77, read-out: Cell Count GI50",> 1000 nM
same,IC50,"[2]; Homo sapiens, SHP77, read-out: Cell Count IC50",> 1000 nM
same,Cell Count Activity Area,[2]; SHP-77,0.76
same,Relative cell count (%) Mean,"[2]; SHP-77, 1.00E+00 microM",67.9%
same,Relative cell count (%) Mean,"[2]; SHP-77, 1.00E-01 microM",79.9%
same,Relative cell count (%) Mean,"[2]; SHP-77, 1.00E-02 microM",96.8%
same,Relative cell count (%) Mean,"[2]; SHP-77, 1.00E-03 microM",96.1%
same,Relative cell count (%) Mean,"[2]; SHP-77, 1.01E-04 microM",95.8%
same,Relative cell count (%) Mean,"[2]; SHP-77, 3.16E-01 microM",75.2%
same,Relative cell count (%) Mean,"[2]; SHP-77, 3.17E-02 microM",88.0%
same,Relative cell count (%) Mean,"[2]; SHP-77, 3.17E-03 microM",92.3%
same,Relative cell count (%) Mean,"[2]; SHP-77, 3.18E-04 microM",90.6%
same,Relative cell count (%) Mean,"[2]; SHP-77, 3.18E-05 microM",98.5%
same,Cell Count Activity Area,[3],2.57
same,Relative cell count (%) Mean,[3]; 1.00E+00 microM,91.4%
same,Relative cell count (%) Mean,[3]; 1.00E-01 microM,84.2%
same,Relative cell count (%) Mean,[3]; 1.00E-02 microM,99.6%
same,Relative cell count (%) Mean,[3]; 1.00E-03 microM,92.3%
same,Relative cell count (%) Mean,[3]; 1.01E-04 microM,102.2%
same,Relative cell count (%) Mean,[3]; 3.16E-01 microM,88.0%
same,Relative cell count (%) Mean,[3]; 3.17E-02 microM,90.4%
same,Relative cell count (%) Mean,[3]; 3.17E-03 microM,95.4%
same,Relative cell count (%) Mean,[3]; 3.18E-04 microM,101.6%
same,Relative cell count (%) Mean,[3]; 3.18E-05 microM,129.0%
same,EC50,"[3]; Homo sapiens, NCl-H510A, Lung, Small cell lung cancer (SCLC), summary Table 5, read-out: EC50",0.072 nM
same,EC50,[3]; [7],0.0717 nM
same,GI50,[3]; [8],> 1000 nM
same,IC50,[3]; [9],> 1000 nM
same,Cell Count Activity Area,[4],2.61
same,Relative cell count (%) Mean,[4]; 1.00E+00 microM,49.8%
same,Relative cell count (%) Mean,[4]; 1.00E-01 microM,51.6%
same,Relative cell count (%) Mean,[4]; 1.00E-02 microM,66.4%
same,Relative cell count (%) Mean,[4]; 1.00E-03 microM,78.8%
same,Relative cell count (%) Mean,[4]; 1.01E-04 microM,98.9%
same,Relative cell count (%) Mean,[4]; 3.16E-01 microM,47.3%
same,Relative cell count (%) Mean,[4]; 3.17E-02 microM,56.3%
same,Relative cell count (%) Mean,[4]; 3.17E-03 microM,81.3%
same,Relative cell count (%) Mean,[4]; 3.18E-04 microM,98.6%
same,Relative cell count (%) Mean,[4]; 3.18E-05 microM,92.7%
same,EC50,[4]; [7],5.4 nM
same,GI50,[4]; [8],35 nM
same,IC50,[4]; [9],324 nM
same,Cell Count Activity Area,[5]; CHP-212,3.87
same,Relative cell count (%) Mean,"[5]; CHP-212, 1.00E+00 microM",43.7%
same,Relative cell count (%) Mean,"[5]; CHP-212, 1.00E-01 microM",47.0%
same,Relative cell count (%) Mean,"[5]; CHP-212, 1.00E-02 microM",57.6%
same,Relative cell count (%) Mean,"[5]; CHP-212, 1.00E-03 microM",59.5%
same,Relative cell count (%) Mean,"[5]; CHP-212, 1.01E-04 microM",82.6%
same,Relative cell count (%) Mean,"[5]; CHP-212, 3.16E-01 microM",46.9%
same,Relative cell count (%) Mean,"[5]; CHP-212, 3.17E-02 microM",54.5%
same,Relative cell count (%) Mean,"[5]; CHP-212, 3.17E-03 microM",59.2%
same,Relative cell count (%) Mean,"[5]; CHP-212, 3.18E-04 microM",68.8%
same,Relative cell count (%) Mean,"[5]; CHP-212, 3.18E-05 microM",93.4%
same,EC50,"[5]; Homo sapiens, CHP-212, read-out: Cell Count EC50",0.267 nM
same,GI50,"[5]; Homo sapiens, CHP-212, read-out: Cell Count GI50",0.349 nM
same,IC50,"[5]; Homo sapiens, CHP-212, read-out: Cell Count IC50",34 nM
same,Cell Count Activity Area,[6],3.76
same,Relative cell count (%) Mean,[6]; 1.00E+00 microM,48.9%
same,Relative cell count (%) Mean,[6]; 1.00E-01 microM,52.1%
same,Relative cell count (%) Mean,[6]; 1.00E-02 microM,70.4%
same,Relative cell count (%) Mean,[6]; 1.00E-03 microM,78.8%
same,Relative cell count (%) Mean,[6]; 1.01E-04 microM,101.1%
same,Relative cell count (%) Mean,[6]; 3.16E-01 microM,50.7%
same,Relative cell count (%) Mean,[6]; 3.17E-02 microM,60.4%
same,Relative cell count (%) Mean,[6]; 3.17E-03 microM,71.4%
same,Relative cell count (%) Mean,[6]; 3.18E-04 microM,85.3%
same,Relative cell count (%) Mean,[6]; 3.18E-05 microM,108.2%
same,EC50,[6]; [7],0.996 nM
same,GI50,[6]; [8],2.17 nM
same,IC50,[6]; [9],34.1 nM
